Results: article PMC11173422, “Substitution-Induced Mechanistic Switching in SNAr-Warheads for Cysteine Proteases” (Molecules, 2024)

Biological target: T1, Rhodesain (TbCatL) (Trypanosoma brucei rhodesiense, UniProt Q95PM0)
T1 construct: stably transformed with the rhodesain ΔC gene cloned into the pPICZαA vector; made in house; host or cells: Pichia pastoris X-33 (pPICZαA, secreted into the culture supernatant)
Assay: Fluorimetric rhodesain inhibition assay with Z-Phe-Arg-AMC
Type: biochemical
Settings: for Inhibition of rhodesain, in words: SAR discussion
Description: Inhibition of rhodesain was assessed using Z-Phe-Arg-AMC as a fluorogenic substrate. IC50 or KI^app were determined depending on the time dependency of the progress curves. Because a competitive mode of inhibition can be assumed, Ki (for reversible inhibition) and KI (for irreversible inhibition) were calculated using the Cheng–Prusoff equation [30].
Fluorimetric enzyme assays were performed as described in the literature. Information regarding buffers, concentrations, the employed substrate, as well as data analysis for linear and non-linear regression is given in the SI. In short, the cleavage of a fluorogenic substrate by the protease of interest is detected in the presence of different concentrations of inhibitors. […] For the irreversible compound with non-linear regression, the kinetic kinact value was also plotted, from which k2nd was calculated.
To investigate this influence, its inhibition of […]
nucleophilic reducing agent for enzyme activation).
Reversibility assessment for time-dependent inhibitor 9
After this incubation period, the samples
Rhodesain, CatL, CatB Assays
Continuous fluorometric measurements with a Tecan Spark 10M reader in a 96 well plate format was used to evaluate activity. Rhodesain, HsCatB and HsCatL were diluted in their respective activation buffer prior to use. Rhodesain was incubated in this for 30–60 min prior to use. The enzyme of interest (5 µL) was incubated with the inhibitor in question (10 µL), and its specific substrate (5 µL) in the respective assay buffer. The fluorescence signal was measured every 30 s for 10 min at room temperature with the corresponding excitation/emission wavelengths (λex = 380 nm / λem = 460 nm). The final concentrations and buffer compositions are depicted in SI-Table S1. Inner-filter effect corrections were performed as described in literature if deviations >5% were detected.
SI-Table S1: Information on assay conditions. [E] = final enzyme concentration, [S] = final substrate concentration in well.
For the evaluation of 9 in absence of DTT (depicted in SI-Figure S5): 5 nM final rhodesain concentration that was activated before in presence of TCEP (alternative activation buffer: 5 mM DTT → 5 mM TCEP) […]
Time-independent behavior
For inhibitors that behaved time-independently during the measurements (i.e., F-t-diagrams show constant slope), IC50 values using defined dilution series for each compound were calculated with GraphPad PRISM by fitting the remaining enzymatic activity to a four parameter IC50 equation with Y [%] as the residual enzyme activity, Ymax as the maximum value of the dose response curve at inhibitor concentrations [I] = 0 µM, Ymin as the minimum value at high inhibitor concentrations and s as the Hill […]
y [%residual activity]=௬ౣ౗౮ ି௬ౣ౟౤ೞ + y୫୧୬ eq. 1
It is assumed that the inhibitors bind competitively in respect to the substrate. Due to the dependence of the IC50 value on the substrate affinity and concentration, the Ki values were calculated with the Cheng-Prusoff equation, using the final substrate concentration [S] and the Michaelis-Menten constant KM to […]
For inhibitors that behaved time-dependently during the measurements (i.e., F-t-diagrams show reducing slopes over time), KIapp and kinact values using defined dilution series for each compound were calculated

T1 sequence (Q95PM0 entry or part of it): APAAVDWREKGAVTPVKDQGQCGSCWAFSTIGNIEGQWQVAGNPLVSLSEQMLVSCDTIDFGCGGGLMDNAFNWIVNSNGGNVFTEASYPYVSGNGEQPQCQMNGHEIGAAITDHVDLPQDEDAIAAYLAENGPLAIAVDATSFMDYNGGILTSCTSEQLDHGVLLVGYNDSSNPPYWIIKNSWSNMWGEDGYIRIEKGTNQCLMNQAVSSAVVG

SMILES | Ki [µM] | Mode of inhibition (time dependency, reversibility) (from progress curves) | Inhibition of rhodesain, in words
CC(C)C[C@H](NC(=O)[C@H](Cc1ccccc1)NC(=O)c1cc([N+](=O)[O-])c(Cl)cc1[N+](=O)[O-])C(=O)O [Compound 12] | 25 | abolished the time-dependent mode of inhibition | 
CC(C)C[C@H](NC(=O)[C@H](Cc1ccccc1)Nc1cc(F)ccc1[N+](=O)[O-])C(=O)O [Compound 5] | 44 |  | did not result in inhibition
CC(C)C[C@H](NC(=O)[C@H](Cc1ccccc1)NC(=O)c1cc([N+](=O)[O-])ccc1F)C(=O)O [Compound 11] | 13 |  | ineffective
C[C@H](Nc1cc(F)c([N+](=O)[O-])cc1[N+](=O)[O-])C(=O)N[C@@H](CCc1ccccc1)C(=O)O [Compound 13] | 13 |  | 
CC(C)C[C@H](NC(=O)[C@H](Cc1ccccc1)NC(=O)Nc1ccc(F)c([N+](=O)[O-])c1)C(=O)O [Compound 7] | 50 |  | did not produce an active inhibitor
CC(C)C[C@H](NC(=O)[C@H](Cc1ccccc1)Nc1ccc([N+](=O)[O-])cc1)C(=O)O [Compound 4] | 17 |  | 
O=C(O)[C@@H](Cc1ccccc1)NC(=O)[C@@H](CCc1ccccc1)Nc1cc(F)c([N+](=O)[O-])cc1[N+](=O)[O-] [Compound 18] | 12 |  | 
CC(C)C[C@H](NC(=O)[C@H](Cc1ccccc1)Nc1ccccc1[N+](=O)[O-])C(=O)O [Compound 1] | 39 |  | 
CC(C)C[C@H](NC(=O)[C@H](Cc1ccccc1)Nc1cc(Cl)ncn1)C(=O)O [Compound 6] | 102 |  | did not produce an active inhibitor
C[C@H](NC(=O)[C@H](CCc1ccccc1)Nc1cc(F)c([N+](=O)[O-])cc1[N+](=O)[O-])C(=O)O [Compound 16] | 13 |  | 
O=C(O)[C@H](CCc1ccccc1)NC(=O)[C@H](Cc1ccccc1)Nc1cc(F)c([N+](=O)[O-])cc1[N+](=O)[O-] [Compound 17] | 6 |  | 
CC(C)C[C@H](NC(=O)[C@H](Cc1ccccc1)NC(=O)c1ccc(Cl)nc1Cl)C(=O)O [Compound 8] | 30 |  | did not yield relevant inhibition
CC(C)C[C@H](NC(=O)[C@H](Cc1ccccc1)NC(=O)c1cccc([N+](=O)[O-])c1F)C(=O)O [Compound 10] | 14 |  | ineffective
C[C@@H](NC(=O)[C@@H](CCc1ccccc1)Nc1cc(F)c([N+](=O)[O-])cc1[N+](=O)[O-])C(=O)O [Compound 14, ((R)-2-((5-fluoro-2,4-dinitrophenyl)amino)-4-phenylbutanoyl)-D-alanine] | 27 |  | 
C[C@@H](Nc1cc(F)c([N+](=O)[O-])cc1[N+](=O)[O-])C(=O)N[C@H](CCc1ccccc1)C(=O)O [Compound 15] | 22 |  | 
